Test results as given in ChEMBL document CHEMBL1201862, “PubChem BioAssay data set” (2004).
Active and inactive are the calls of the source.

Columns and labels:
[1] = HepG2 cell cytotoxicity, dose response, cytotoxicity control for non-replicating M. tuberculosis project (AID 489018); assay type: functional; conditions: Mycobacterium tuberculosis
[2] = HEK-293T cell viability reduction – luminescence, B-cell screen hits, cytotoxicity control for BCR NF-kB inhibitor project, dose response (AID 489021); assay type: functional, cell-based;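 further: HEK-293T cells carrying an NF-kB luciferase reporter; cells exposed to compound for about 14 hours before viability readout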
[3] = Luminescence Cell-Based Dose Confirmation HTS to Identify Inhibitors of Platelet Dense Granule Release. [Related pubchem assays: 1663 (Primary HTS), 1678 (Summary of Project)]; assay type: functional
[4] = target: Luciferin 4-monooxygenase (Photinus pyralis, UniProt P08659); assay: inhibition of purified Photinus pyralis luciferase – biochemical, luminescence, dose response (AID 1891)
[5] = alpha-synuclein stem-loop luciferase translation blockers – H4 neuroglioma cells, luminescence, confirmation (AID 1988); assay type: functional, cell-based
[6] = test system: Streptococcus; assay: GAS UMAA2166 growth inhibition – luminescence, BacTiterGlo, counter-screen for streptokinase expression inhibitor project, dose response (AID 1915); assay type: functional, organism-based;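 further: potency for reduction of bacterial viability or growth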
[7] = target: T1, Short transient receptor potential channel 4 (Mus musculus, UniProt Q9QUQ5); assay: calcium entry via TRPC4 opening agents – cell-based, HEK293 TRPC4/mu-opioid, Fluo-4 calcium, dose response (AID 434937); assay type: functional
T1 sequence (Q9QUQ5 whole entry): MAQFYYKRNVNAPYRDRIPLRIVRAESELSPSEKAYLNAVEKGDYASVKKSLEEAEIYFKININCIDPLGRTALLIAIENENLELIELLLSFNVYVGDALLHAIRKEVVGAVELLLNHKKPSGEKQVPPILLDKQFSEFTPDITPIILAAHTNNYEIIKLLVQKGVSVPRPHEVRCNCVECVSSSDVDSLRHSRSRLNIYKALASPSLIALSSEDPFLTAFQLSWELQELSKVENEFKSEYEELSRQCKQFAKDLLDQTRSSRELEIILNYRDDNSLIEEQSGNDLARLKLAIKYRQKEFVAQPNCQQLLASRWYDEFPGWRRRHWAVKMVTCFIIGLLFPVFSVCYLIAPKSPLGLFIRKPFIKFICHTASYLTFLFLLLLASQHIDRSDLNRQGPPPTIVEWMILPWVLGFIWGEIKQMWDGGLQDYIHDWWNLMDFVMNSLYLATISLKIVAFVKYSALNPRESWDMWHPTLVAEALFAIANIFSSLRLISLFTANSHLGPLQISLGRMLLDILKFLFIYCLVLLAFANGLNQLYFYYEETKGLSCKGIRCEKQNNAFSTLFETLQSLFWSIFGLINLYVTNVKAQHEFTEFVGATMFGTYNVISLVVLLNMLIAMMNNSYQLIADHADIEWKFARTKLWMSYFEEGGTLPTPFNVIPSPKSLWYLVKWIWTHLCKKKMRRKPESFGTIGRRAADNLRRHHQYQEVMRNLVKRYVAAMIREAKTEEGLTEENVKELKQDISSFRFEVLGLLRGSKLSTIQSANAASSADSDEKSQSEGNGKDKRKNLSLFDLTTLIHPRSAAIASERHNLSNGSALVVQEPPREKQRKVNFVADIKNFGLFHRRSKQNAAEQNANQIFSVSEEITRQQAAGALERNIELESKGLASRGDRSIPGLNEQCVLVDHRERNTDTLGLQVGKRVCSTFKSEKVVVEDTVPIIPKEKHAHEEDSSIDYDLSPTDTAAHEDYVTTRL

[8] = Luminescence Cell-Based Dose Response HTS to Identify Inhibitors of 5'UTR Stem-Loop Driven Prion Protein mRNA Translation in H4 Neuroglioblastoma Cells. [Related pubchem assays: 1827 (Project Summary), 1813 (Primary HTS)]; assay type: functional
[9] = luciferase reporter signal suppression in cells – H4 neuroglioma cells, luminescence, dose response (AID 1990); assay type: functional, cell-based
[10] = test system: Streptococcus sp. 'group A'; assay: Streptococcus pyogenes SK(-)GAS viability under kanamycin – luminescence, BacTiterGlo, confirmation, counter-screen for streptokinase expression inhibitor project, dose response (AID 1900); assay type: functional, organism-based
[11] = target: T2, Calpain-2 catalytic subunit (Sus scrofa, UniProt P43367); assay: m-calpain protease blockers, concentration series – biochemical, fluorogenic peptide substrate, dose response (AID 1420); assay type: functional
T2 sequence (P43367 whole entry): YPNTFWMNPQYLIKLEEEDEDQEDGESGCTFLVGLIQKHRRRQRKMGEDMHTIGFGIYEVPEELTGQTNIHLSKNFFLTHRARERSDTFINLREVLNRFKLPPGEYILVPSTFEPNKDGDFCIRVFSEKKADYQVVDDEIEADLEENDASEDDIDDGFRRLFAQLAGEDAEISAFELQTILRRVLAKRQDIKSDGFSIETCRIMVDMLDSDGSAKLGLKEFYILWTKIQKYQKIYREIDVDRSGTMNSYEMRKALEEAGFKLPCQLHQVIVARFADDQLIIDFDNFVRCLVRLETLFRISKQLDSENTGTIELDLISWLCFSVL

[12] = Trypanosoma cruzi growth suppression in host cells – NIH3T3 host cells, beta-gal luminescence, confirmation (AID 2044); assay type: functional, cell-based;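 further: intracellular parasites grown in NIH/3T3 mouse fibroblasts as host cells; luminescent beta-galactosidase reporter signal from transgenic T. cruzi replicating inside host cells; inhibitors lower the luminescence signal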
[13] = cells; assay type: functional
[14] = cells; assay type: functional, cell-based
[15] = Vero E6 cell cytotoxicity, dose response, cytotoxicity control for non-replicating M. tuberculosis project, secondary assay (AID 492998); assay type: functional, VeroE6; conditions: Vero C1008
[16] = THP-1 cell cytotoxicity, dose response, cytotoxicity control for non-replicating M. tuberculosis project (AID 489025); assay type: functional
[17] = target: T3, Streptokinase A (Streptococcus pyogenes serotype M1, UniProt P10520); assay: viability-normalized secreted streptokinase activity reduction – plasminogen activation absorbance, OD405, dose response (AID 1914); assay type: functional, Streptococcus pyogenes M1 GAS;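 further: secreted streptokinase activity via plasminogen activation per viability signal from cell pellet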
T3 sequence (P10520 whole entry): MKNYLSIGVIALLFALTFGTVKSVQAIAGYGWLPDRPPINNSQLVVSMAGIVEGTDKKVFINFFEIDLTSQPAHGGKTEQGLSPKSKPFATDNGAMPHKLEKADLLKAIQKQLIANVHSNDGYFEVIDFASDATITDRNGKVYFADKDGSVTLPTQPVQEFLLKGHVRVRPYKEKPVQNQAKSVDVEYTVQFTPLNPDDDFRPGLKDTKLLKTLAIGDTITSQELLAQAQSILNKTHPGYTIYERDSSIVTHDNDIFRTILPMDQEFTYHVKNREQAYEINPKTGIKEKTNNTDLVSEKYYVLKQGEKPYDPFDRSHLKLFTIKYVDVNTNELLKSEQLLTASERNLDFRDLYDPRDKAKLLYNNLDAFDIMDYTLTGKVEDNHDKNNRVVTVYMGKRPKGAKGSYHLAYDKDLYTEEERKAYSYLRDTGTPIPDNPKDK

[18] = NIH3T3 cell viability loss – ATP luminescence, mouse fibroblasts, counter-screen, dose response (AID 2010); assay type: functional, cell-based;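 further: cells exposed to compound for about 90 hours before reading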
[19] = cells; assay type: functional, cell-based; remark: listed apart in the source
[20] = microbe, parasite or virus in culture; assay type: functional; conditions: Mycobacterium tuberculosis
[21] = test system: INS1; assay: INS-1E survival protection against cytokine death – cell-based, luminescence, retest, dose response (AID 449756); assay type: functional; conditions: Rattus norvegicus;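 further: cell death triggered by IL-1 beta plus TNF-alpha plus IFN-gamma mixture; protective hits raise ATP signal compared with cytokine alone wells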
[22] = OVCAR-3 cell viability loss – plate reader, dry powder samples, PAX8 inhibitor project, dose response (AID 743044); assay type: functional, cell-based
[23] = target: Paired box protein Pax-8 (Homo sapiens, UniProt Q06710); assay: PAX8 transcriptional activity inhibition in RMG-I – RMG-I cells, luciferase, cherry-pick, dose response (AID 687027); assay type: functional, cell-based;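 further: luciferase reporter driven by Pax8 target thyroperoxidase promoter measured by SteadyGlo luminescence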
[24] = OVCAR8 cell viability loss – plate reader, dry powder samples, PAX8 project, dose response (AID 743197); assay type: functional, cell-based; conditions: OVCAR-8
[25] = growth inhibition of yeast DHODH-expressing 3D7 parasites – SYBR Green, dry powder samples, dose response (AID 1159570); assay type: functional, cell-based;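 further: parasite growth measured after 72 hours of compound exposure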
[26] = growth inhibition of PfATP4-mutant resistant parasites – NITD609-resistant line, SYBR Green, dry powder, dose response (AID 1159571); assay type: functional, cell-based;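 further: parasites synchronized at ring stage by sorbitol before testing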
[27] = Dd2 malaria parasite growth inhibition potency – SYBR Green, dry powder samples, dose response (AID 1159566); assay type: functional, cell-based;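 further: potency for growth inhibition with lower SYBR green DNA signal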
[28] = P. falciparum Dd2 growth inhibitors, dose response, SYBR Green, cherry-picked samples (AID 1159567); assay type: functional, cell-based

Sequence of Paired box protein Pax-8 (Q06710 whole entry): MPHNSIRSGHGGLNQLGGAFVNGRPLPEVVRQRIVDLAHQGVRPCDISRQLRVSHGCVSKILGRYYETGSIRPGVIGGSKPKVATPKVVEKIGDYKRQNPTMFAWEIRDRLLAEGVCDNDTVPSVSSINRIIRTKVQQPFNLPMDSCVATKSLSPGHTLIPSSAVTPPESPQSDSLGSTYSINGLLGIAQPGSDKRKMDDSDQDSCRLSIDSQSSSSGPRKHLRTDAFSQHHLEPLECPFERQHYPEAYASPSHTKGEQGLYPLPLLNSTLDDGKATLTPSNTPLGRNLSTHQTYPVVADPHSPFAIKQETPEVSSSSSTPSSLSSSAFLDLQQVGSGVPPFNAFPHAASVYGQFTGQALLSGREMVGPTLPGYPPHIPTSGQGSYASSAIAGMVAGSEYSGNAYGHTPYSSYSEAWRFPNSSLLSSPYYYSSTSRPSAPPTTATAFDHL
Sequence of Luciferin 4-monooxygenase (P08659 whole entry): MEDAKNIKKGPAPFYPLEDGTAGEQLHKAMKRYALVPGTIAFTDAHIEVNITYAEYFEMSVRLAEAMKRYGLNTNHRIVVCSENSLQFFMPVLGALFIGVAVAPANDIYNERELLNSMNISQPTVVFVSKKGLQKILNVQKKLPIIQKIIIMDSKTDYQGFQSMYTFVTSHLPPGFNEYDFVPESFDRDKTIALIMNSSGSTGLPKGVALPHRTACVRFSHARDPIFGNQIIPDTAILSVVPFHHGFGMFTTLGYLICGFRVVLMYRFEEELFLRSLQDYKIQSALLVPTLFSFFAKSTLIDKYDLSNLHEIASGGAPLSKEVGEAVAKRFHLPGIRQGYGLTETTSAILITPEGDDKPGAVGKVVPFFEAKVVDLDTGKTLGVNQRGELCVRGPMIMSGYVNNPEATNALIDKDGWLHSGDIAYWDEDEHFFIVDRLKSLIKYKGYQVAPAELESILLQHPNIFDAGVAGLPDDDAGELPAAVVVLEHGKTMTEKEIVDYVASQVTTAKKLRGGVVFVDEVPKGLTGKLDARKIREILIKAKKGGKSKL

Nc1cccn2c(-c3ccc(Cl)cc3)cnc12
CC50 [1]: 19.1 µM (active)

CCN1C(=O)Nc2cccc3cccc1c23
IC50 [2]: > 80 µM (inactive)
EC50 [3]: 7.12 µM (active)
EC50 [4]: > 112 µM (not active)

CCCOc1ccc(C(=O)NNC(=S)NC(=O)c2ccccc2)cc1
EC50 [5]: > 120 µM (not active)
EC50 [6]: 0.762 µM (active)
EC50 [7]: 3.35 µM (active)
EC50 [8]: 14.5 µM (active)
EC50 [9]: 12.5 µM (active)
EC50 [10]: 540 nM (active)

O=C(CCCN1C(=O)/C(=C/c2ccccc2Cl)SC1=S)NNC(=O)c1ccc(Cl)cc1Cl
EC50 [5]: 1.03 µM (active)
IC50 [2]: > 80 µM (inactive)
IC50 [11]: > 50 µM (not active)
EC50 [8]: 7.86 µM (active)
EC50 [9]: 0.675 µM (active)
EC50 [3]: > 112 µM (not active)
EC50 [4]: > 112 µM (not active)

Cc1c(CCC(=O)N2CCC[C@H]2C(=O)O)c(=O)oc2cc3oc4c(c3cc12)CCCC4
EC50 [5]: 10.2 µM (active)
IC50 [2]: > 80 µM (inactive)
EC50 [9]: 8.13 µM (active)

Cc1nnc(-c2ccccc2)c(=O)n1/N=C/c1c(O)ccc2ccccc12
EC50 [5]: > 120 µM (not active)
EC50 [12]: 1.16 µM (active)
IC50 [13]: 35.3 µM (active)
EC50 [14]: 25.7 µM (active)
CC50 [15]: 8.43 µM (active)
EC50 [6]: 36.2 µM (active)
CC50 [16]: 3.63 µM (active)
CC50 [1]: > 20 µM (active)
EC50 [8]: 9.49 µM (active)
EC50 [9]: > 120 µM (not active)
EC50 [17]: > 150 µM (not active)
EC50 [18]: 1.97 µM (active)
EC50 [10]: 2700 nM (active)
EC50 [19]: > 350 µM (not active)
CC50 [20]: 18.9 µM (active)

Cc1nnsc1C(=O)N/N=C/c1ccc2ccccc2c1O
IC50 [13]: > 50 µM (active)
EC50 [14]: 6.43 µM (active)
CC50 [15]: 0.09 µM (active)
AC50 [21]: 321 nM (active)
CC50 [16]: < 0.078 µM (active)
CC50 [1]: 1.51 µM (active)
EC50 [19]: 35.8 µM (active)

CC(C)NC(=O)N(C)C[C@H]1OCCCC[C@@H](C)Oc2ccc(NC(=O)Nc3ccc(C(F)(F)F)cc3)cc2C(=O)N([C@@H](C)CO)C[C@H]1C
AC50 [22]: 32.7 µM (active)
AC50 [23]: 8.11 µM (active)
AC50 [24]: 48.9 µM (active)

Cc1ccc(S(=O)(=O)Nc2ccc3c(c2)C(=O)N([C@@H](C)CO)C[C@H](C)[C@H](CN(C)Cc2ccc(C(F)(F)F)cc2)OCCCC[C@@H](C)O3)cc1
AC50 [23]: 7.03 µM (active)
AC50 [24]: > 70 µM (inactive)

C[C@H]1CCCCO[C@H](CN(C)S(=O)(=O)c2ccc(F)cc2)[C@@H](C)CN([C@@H](C)CO)C(=O)c2cc(NS(=O)(=O)c3ccc(Cl)cc3)ccc2O1
AC50 [22]: 49.2 µM (active)
AC50 [23]: 5.92 µM (active)
AC50 [24]: 60.6 µM (active)

COc1ccc(/C(C)=N/Nc2ncc(Cl)cc2Cl)c(O)c1
IC50 [13]: 2.19 µM (active)
CC50 [15]: > 20 µM (active)
CC50 [16]: 24.9 µM (active)
CC50 [1]: 19.3 µM (active)

Cc1ccc(S(=O)(=O)N(C)C[C@H]2OCc3ccccc3-c3c(n(C)c4ccccc34)C(=O)N([C@@H](C)CO)C[C@@H]2C)cc1
AC50 [25]: 1.21 µM (active)
AC50 [26]: 807 nM (active)
AC50 [27]: 818 nM (active)
AC50 [28]: 1.53 µM (active)

CCCc1cn(CC[C@@H]2CC[C@H](NS(=O)(=O)c3ccc(-c4ccccc4)cc3)[C@H](CO)O2)nn1
AC50 [25]: 0.916 µM (active)
AC50 [26]: 883 nM (active)
AC50 [27]: 332 nM (active)
AC50 [28]: 1.39 µM (active)

C[C@H]1CN([C@@H](C)CO)C(=O)c2c(c3ccccc3n2C)-c2ccccc2CO[C@@H]1CN(C)S(=O)(=O)c1ccc(F)cc1
AC50 [25]: 1.4 µM (active)
AC50 [26]: 1150 nM (active)
AC50 [27]: 755 nM (active)
AC50 [28]: 1.89 µM (active)

O=C(C1CCCCC1)N1[C@H](CO)[C@@H](c2ccccc2)C12CN(Cc1cccc(Cl)c1)C2
AC50 [25]: 0.651 µM (active)
AC50 [26]: 606 nM (active)
AC50 [27]: 353 nM (active)
AC50 [28]: 1.43 µM (active)
